Assay results as given in patent US5563154A, “Tetrahydro-quinolinyl/isoquinolinyl-terminal alkylamino ethynyl alanine amino diol compounds for treatment of hypertension” (G. D. Searle & Co., priority 1995, dated 1996).
Non-standard residues stand in square brackets, D forms with d. Residues, ends and D or L forms follow the SMILES beside them. *: point of attachment. Sta = CC(C)C[C@H](N)[C@@H](O)CC(=O)O; Isovaleryl = CC(C)CC(=O)*

Columns and labels:
[1] = target: T1, human renin (Homo sapiens, UniProt P00797); test: Human Renin Inhibition in vitro (angiotensin I produced, by radioimmunoassay); type: biochemical; conditions: pH 7.4, 37° C., two hours, human plasma
T1 construct: purchased National Institute for Biological Standards, London
T1 sequence (P00797 67-406): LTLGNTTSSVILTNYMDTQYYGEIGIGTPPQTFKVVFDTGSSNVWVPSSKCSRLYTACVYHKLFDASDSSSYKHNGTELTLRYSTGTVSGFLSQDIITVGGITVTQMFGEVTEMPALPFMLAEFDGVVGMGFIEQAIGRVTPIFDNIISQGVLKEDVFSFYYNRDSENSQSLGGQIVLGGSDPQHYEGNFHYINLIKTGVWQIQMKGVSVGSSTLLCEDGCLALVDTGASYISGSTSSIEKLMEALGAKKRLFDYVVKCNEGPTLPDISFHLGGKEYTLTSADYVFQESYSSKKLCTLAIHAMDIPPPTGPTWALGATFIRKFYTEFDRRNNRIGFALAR
Experimental: Compounds of Formula I were evaluated as inhibitors of human renin in an in vitro assay, as follows: This human renin inhibition test has been previously described in detail [Papaioannou et al., Clinical and Experimental Hypertension, A7(9), 1243-1257 (1985)]. Human renin was obtained from the National Institute for Biological Standards, London. An incubation mixture was prepared containing the following components: in a total volume of 0.25 mL: 100 mM Tris-acetate buffer at pH 7.4, 25×10^-6 Goldblatt units of renin, 0.05 mL of plasma from human volunteers taking oral contraceptives, 6.0 mM Na-EDTA, 2.4 mM phenylmethyl sulfonyl fluoride, 1.5 mM 8-hydroxyquinoline, 0.4 mg/mL bovine serum albumin (BSA), and 0.024 mg/mL neomycin sulfate. This mixture was incubated for two hours at 37° C. in the presence or absence of renin inhibitors. The produced angiotensin I was determined by radioimmunoassay (New England Nuclear kit). Test compounds to be assayed were dissolved in DMSO and diluted with 100mM Tris-acetate buffer at pH 7.4 containing 0.5% BSA to the appropriate concentration. The final concentration of organic solvent in the reaction mixture was less than 1%. Control incubations at 37° C. were used to correct for effects of organic solvent on renin activity.

[2] = system: hog renin; conditions: after the injection of hog renin into nephrectomized rats; cited from earlier work
[3] = system: pepsin; conditions: cited from earlier work
[4] = system: cathepsin D; conditions: cited from earlier work
[5] = system: renin; conditions: cited from earlier work

| Compound | IC50 [1] | reduce blood pressure in vivo [2] | inhibitor of pepsin [3] | inhibitor of cathepsin D [4] | inhibitor of renin [5] |
| --- | --- | --- | --- | --- | --- |
| C#CC[C@H](NC(=O)[C@@H](CC(=O)N(C)CCc1ccccn1)Cc1ccccc1)C(=O)N[C@@H](CC1CCCCC1)[C@@H](O)[C@@H](O)CC(C)C (relative stereo) [Example 1, N^1-[1R*-[[[1S, 1R*- (cyclohexylmethyl)-2S*, 3R*-dihydroxy-5-methylhexyl]amino]carbonyl]-3-butynyl]-N^4-methyl-2S*-(phenylmethyl)-N^4-[2-(2-pyridinyl)ethyl]butanediamide] | 0.15 nM |  |  |  |  |
| CC(C)CC(=O)N[C@H](C(=O)N[C@H](C(=O)N[C@@H](CC(C)C)[C@@H](O)CC(=O)N[C@@H](C)C(=O)N[C@@H](CC(C)C)[C@@H](O)CC(=O)O)C(C)C)C(C)C [pepstatin] (Isovaleryl-VV[Sta]A[Sta]-OH) |  | reduce blood pressure in vivo | inhibitor | inhibitor | inhibitor |
